Test results: patent US20230257396A1, “MACROCYCLES AND THEIR USE” (BLOSSOMHILL THERAPEUTICS, INC., priority 2020, published 2023)

What was measured:
Assay in all cases: KINOMEscan kinase binding assay (Eurofins/DiscoveRx), % Ctrl
Conditions in all cases: 1 μM
[1] = molecular target: T1, kinases (Homo sapiens, UniProt P00519, F317I)
T1 construct: purchased Eurofins/DiscoveRx; host or cells: E. coli BL21-derived host (T7 phage display) for most kinases; HEK-293 for the rest
Procedure, shortened: (§1)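 Competition binding: DNA- or phage-tagged kinases (T7 phage in E. coli BL21, or HEK-293-expressed) with immobilized biotinylated ligand beads and test compound, 1 h at room temperature. Bead-bound kinase eluted and quantified by qPCR; % Ctrl = (compound − positive control)/(negative control − positive control) ×100 at a single compound concentration.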

[2] = molecular target: T2, kinases (Homo sapiens, UniProt P07949, M918T)
T2 construct: purchased Eurofins/DiscoveRx; host or cells: E. coli BL21-derived host (T7 phage display) for most kinases; HEK-293 for the rest
T2 sequence (P07949 29-1114 M918T): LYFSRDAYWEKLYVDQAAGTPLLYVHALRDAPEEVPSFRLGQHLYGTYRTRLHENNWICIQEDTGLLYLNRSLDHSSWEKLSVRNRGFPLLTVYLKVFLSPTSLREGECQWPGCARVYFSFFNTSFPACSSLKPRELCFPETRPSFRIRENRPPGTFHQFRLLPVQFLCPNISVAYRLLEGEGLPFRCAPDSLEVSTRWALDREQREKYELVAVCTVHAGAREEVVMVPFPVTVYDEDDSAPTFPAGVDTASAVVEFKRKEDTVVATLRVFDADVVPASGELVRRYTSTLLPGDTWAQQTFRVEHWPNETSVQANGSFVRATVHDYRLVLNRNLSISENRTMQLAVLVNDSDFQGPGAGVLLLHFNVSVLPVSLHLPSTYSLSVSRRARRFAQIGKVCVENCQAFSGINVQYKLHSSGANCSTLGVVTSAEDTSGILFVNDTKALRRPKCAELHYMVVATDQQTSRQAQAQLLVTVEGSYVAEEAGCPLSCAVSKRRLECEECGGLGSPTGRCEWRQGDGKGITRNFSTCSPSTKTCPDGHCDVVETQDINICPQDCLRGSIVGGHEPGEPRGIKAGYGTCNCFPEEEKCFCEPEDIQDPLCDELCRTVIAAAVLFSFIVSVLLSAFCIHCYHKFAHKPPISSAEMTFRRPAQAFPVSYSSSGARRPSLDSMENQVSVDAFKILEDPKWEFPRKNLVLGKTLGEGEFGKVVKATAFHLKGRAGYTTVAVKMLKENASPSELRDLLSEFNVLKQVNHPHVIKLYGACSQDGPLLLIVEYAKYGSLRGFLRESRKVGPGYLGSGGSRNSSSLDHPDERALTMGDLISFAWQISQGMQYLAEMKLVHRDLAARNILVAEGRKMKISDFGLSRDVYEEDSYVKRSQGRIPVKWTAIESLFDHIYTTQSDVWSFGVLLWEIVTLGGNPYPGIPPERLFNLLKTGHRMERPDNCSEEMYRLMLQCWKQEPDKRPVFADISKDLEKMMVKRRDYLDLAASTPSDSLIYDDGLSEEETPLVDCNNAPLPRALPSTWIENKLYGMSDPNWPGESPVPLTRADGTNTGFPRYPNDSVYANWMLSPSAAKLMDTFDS
Procedure, shortened: as §1

[3] = molecular target: T3, kinases (Homo sapiens, UniProt P00533)
T3 construct: purchased Eurofins/DiscoveRx; host or cells: E. coli BL21-derived host (T7 phage display) for most kinases; HEK-293 for the rest
Procedure, shortened: as §1

[4] = molecular target: T4, kinases (Homo sapiens, UniProt P10721, L576P)
T4 construct: purchased Eurofins/DiscoveRx; host or cells: E. coli BL21-derived host (T7 phage display) for most kinases; HEK-293 for the rest
T4 sequence (P10721 26-976 L576P): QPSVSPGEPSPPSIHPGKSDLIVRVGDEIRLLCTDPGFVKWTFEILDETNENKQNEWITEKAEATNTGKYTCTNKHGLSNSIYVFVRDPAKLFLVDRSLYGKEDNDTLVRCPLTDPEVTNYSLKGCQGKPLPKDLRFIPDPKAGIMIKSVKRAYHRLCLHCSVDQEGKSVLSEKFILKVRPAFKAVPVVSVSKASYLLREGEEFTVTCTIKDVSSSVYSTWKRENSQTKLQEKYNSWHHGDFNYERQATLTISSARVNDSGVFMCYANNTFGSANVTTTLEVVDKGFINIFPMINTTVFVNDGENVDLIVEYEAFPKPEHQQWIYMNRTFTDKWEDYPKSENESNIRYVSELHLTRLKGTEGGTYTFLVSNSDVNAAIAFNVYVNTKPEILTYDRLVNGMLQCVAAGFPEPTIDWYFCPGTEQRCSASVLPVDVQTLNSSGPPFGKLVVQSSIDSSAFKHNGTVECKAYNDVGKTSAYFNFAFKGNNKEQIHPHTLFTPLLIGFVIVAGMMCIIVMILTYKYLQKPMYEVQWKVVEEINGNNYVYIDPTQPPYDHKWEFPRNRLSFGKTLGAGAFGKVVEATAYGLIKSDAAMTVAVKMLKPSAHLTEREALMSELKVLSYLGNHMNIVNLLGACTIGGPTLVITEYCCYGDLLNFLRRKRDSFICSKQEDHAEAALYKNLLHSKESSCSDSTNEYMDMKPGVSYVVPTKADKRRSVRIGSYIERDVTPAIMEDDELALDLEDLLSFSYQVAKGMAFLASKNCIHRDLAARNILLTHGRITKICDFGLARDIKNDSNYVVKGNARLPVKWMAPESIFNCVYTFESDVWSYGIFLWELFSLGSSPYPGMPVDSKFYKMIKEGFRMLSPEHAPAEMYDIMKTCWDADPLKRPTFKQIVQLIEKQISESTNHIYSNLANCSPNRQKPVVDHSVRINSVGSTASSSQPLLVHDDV
Procedure, shortened: as §1

[5] = molecular target: T5, kinases (Homo sapiens, UniProt P35916)
T5 construct: purchased Eurofins/DiscoveRx; host or cells: E. coli BL21-derived host (T7 phage display) for most kinases; HEK-293 for the rest
T5 sequence (P35916 25-1363): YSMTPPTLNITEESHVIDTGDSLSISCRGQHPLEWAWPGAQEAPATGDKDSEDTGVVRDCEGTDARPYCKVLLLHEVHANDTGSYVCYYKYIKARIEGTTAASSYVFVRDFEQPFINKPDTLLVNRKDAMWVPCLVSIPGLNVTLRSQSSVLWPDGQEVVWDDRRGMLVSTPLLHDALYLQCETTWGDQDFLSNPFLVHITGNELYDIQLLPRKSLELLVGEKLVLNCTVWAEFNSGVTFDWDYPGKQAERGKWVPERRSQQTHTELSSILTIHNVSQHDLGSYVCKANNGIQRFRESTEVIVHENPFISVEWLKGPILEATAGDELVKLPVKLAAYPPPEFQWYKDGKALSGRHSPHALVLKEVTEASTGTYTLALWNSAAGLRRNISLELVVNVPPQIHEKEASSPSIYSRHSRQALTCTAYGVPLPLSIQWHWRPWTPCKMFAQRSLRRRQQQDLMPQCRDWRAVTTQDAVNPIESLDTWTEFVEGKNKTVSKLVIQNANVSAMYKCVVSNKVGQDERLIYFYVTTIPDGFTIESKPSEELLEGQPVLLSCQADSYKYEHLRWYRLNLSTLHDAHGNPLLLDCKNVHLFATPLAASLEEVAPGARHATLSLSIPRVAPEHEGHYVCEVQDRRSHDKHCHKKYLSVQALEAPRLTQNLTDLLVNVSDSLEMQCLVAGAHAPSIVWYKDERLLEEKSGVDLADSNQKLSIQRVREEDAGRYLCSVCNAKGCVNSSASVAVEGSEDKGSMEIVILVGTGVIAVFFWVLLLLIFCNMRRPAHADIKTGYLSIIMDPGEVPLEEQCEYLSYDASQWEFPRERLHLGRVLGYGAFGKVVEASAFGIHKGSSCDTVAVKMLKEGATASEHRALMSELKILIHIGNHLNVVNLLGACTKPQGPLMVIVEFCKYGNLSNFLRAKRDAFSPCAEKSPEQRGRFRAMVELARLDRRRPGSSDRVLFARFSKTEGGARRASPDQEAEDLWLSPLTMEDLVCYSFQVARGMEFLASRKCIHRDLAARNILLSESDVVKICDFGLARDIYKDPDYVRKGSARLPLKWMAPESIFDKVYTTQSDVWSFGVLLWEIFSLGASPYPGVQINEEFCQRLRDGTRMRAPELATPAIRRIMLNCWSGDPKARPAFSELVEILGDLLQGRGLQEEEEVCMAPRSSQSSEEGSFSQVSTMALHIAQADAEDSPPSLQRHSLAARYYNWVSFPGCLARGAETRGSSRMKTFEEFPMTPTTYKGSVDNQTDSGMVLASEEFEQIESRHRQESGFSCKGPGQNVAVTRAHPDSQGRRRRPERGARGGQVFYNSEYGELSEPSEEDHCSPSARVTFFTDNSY
Procedure, shortened: as §1

[6] = molecular target: T6, kinases (Homo sapiens, UniProt P00519)
T6 construct: purchased Eurofins/DiscoveRx; host or cells: E. coli BL21-derived host (T7 phage display) for most kinases; HEK-293 for the rest
Procedure, shortened: as §1

[7] = molecular target: T7, kinases (Homo sapiens, UniProt P00533, L858R)
T7 construct: purchased Eurofins/DiscoveRx; host or cells: E. coli BL21-derived host (T7 phage display) for most kinases; HEK-293 for the rest
Procedure, shortened: as §1

[8] = molecular target: T8, kinases (Homo sapiens, UniProt P07949, V804L)
T8 construct: purchased Eurofins/DiscoveRx; host or cells: E. coli BL21-derived host (T7 phage display) for most kinases; HEK-293 for the rest
T8 sequence (P07949 29-1114 V804L): as the sequence (P07949 29-1114 M918T) above, with V776L, T890M counted along it
Procedure, shortened: as §1

[9] = molecular target: T9, kinases (Homo sapiens, UniProt P00533, L861Q)
T9 construct: purchased Eurofins/DiscoveRx; host or cells: E. coli BL21-derived host (T7 phage display) for most kinases; HEK-293 for the rest
Procedure, shortened: as §1

[10] = molecular target: T10, kinases (Homo sapiens, UniProt P00519, H396P)
T10 construct: purchased Eurofins/DiscoveRx; host or cells: E. coli BL21-derived host (T7 phage display) for most kinases; HEK-293 for the rest
Procedure, shortened: as §1

[11] = molecular target: T11, kinases (Homo sapiens, UniProt P10721, V559D/V654A)
T11 construct: purchased Eurofins/DiscoveRx; host or cells: E. coli BL21-derived host (T7 phage display) for most kinases; HEK-293 for the rest
T11 sequence (P10721 26-976 V559D/V654A): as the sequence (P10721 26-976 L576P) above, with V534D, P551L, V629A counted along it
Procedure, shortened: as §1

[12] = molecular target: T12, kinases (Homo sapiens, UniProt P36888)
T12 construct: purchased Eurofins/DiscoveRx; host or cells: E. coli BL21-derived host (T7 phage display) for most kinases; HEK-293 for the rest
T12 sequence (P36888 27-993): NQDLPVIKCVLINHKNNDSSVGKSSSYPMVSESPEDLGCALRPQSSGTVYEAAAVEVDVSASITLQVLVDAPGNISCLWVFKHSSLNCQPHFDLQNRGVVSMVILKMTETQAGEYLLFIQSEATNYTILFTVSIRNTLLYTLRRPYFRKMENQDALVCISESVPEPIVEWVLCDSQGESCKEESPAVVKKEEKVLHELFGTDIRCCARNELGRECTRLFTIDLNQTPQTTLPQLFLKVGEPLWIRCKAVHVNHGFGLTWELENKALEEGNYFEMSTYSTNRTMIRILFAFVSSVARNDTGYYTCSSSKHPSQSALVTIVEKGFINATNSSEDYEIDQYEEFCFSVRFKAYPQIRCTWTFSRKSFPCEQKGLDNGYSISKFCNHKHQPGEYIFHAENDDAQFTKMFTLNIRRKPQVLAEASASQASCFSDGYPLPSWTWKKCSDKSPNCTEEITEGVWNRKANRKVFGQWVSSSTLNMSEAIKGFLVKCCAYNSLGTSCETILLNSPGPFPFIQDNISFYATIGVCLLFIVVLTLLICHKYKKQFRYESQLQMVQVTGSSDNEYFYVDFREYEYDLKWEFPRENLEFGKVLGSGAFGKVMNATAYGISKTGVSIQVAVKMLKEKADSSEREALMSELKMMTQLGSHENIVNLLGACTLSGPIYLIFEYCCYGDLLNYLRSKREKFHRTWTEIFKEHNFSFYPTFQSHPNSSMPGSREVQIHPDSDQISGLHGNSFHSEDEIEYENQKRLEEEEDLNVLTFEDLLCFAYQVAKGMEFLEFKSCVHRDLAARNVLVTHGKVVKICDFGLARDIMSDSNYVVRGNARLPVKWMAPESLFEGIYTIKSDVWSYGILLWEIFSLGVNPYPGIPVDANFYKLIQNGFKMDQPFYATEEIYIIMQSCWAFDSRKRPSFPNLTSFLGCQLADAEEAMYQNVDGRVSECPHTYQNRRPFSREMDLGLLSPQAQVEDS
Procedure, shortened: as §1

[13] = molecular target: T13, kinases (Homo sapiens, UniProt P09619)
T13 construct: purchased Eurofins/DiscoveRx; host or cells: E. coli BL21-derived host (T7 phage display) for most kinases; HEK-293 for the rest
T13 sequence (P09619 33-1106): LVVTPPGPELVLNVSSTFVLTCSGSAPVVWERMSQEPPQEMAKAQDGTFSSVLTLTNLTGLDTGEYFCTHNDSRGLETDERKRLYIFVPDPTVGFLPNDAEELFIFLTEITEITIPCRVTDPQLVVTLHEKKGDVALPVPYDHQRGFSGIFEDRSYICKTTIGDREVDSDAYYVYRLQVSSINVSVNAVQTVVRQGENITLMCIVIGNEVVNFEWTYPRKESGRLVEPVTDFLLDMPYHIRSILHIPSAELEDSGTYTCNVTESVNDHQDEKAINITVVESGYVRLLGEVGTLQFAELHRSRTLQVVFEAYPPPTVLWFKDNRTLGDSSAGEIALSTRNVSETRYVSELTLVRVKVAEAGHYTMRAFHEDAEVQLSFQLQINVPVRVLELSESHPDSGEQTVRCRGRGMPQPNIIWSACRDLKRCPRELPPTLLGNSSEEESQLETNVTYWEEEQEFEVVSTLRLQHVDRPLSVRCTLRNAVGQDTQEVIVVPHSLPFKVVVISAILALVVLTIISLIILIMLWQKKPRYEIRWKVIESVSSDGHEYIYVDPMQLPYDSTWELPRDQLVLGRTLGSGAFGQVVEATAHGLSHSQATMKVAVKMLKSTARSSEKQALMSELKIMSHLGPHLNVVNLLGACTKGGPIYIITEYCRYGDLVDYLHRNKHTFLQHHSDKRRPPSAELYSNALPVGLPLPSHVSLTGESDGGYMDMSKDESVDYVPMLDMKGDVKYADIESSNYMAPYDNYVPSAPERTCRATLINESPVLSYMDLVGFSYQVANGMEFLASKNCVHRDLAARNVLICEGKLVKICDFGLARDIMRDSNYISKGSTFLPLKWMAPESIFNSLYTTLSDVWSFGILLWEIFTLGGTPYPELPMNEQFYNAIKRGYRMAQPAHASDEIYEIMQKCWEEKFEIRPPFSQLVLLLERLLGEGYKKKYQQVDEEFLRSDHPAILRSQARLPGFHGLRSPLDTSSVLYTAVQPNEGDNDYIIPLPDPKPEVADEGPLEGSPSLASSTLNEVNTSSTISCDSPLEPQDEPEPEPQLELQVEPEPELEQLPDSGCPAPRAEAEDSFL
Procedure, shortened: as §1

[14] = molecular target: T14, kinases (Homo sapiens, UniProt P00533, L858R/T790M)
T14 construct: purchased Eurofins/DiscoveRx; host or cells: E. coli BL21-derived host (T7 phage display) for most kinases; HEK-293 for the rest
Procedure, shortened: as §1

[15] = molecular target: T15, kinases (Homo sapiens, UniProt P00519, Y253F)
T15 construct: purchased Eurofins/DiscoveRx; host or cells: E. coli BL21-derived host (T7 phage display) for most kinases; HEK-293 for the rest
Procedure, shortened: as §1

[16] = target ABL1(F317I)-nonphosphorylated
[17] = target ABL1(F317I)-phosphorylated
[18] = target ABL1(H396P)-nonphosphorylated
[19] = target ABL1(H396P)-phosphorylated
[20] = target ABL1(Y253F)-phosphorylated

% Ctrl, ABL1(F317I)-nonphosphorylated [1, 16] | % Ctrl, ABL1(F317I)-phosphorylated [1, 17] | % Ctrl, RET(M918T) ([2]; target RET(M918T)) | % Ctrl, EGFR ([3]; target EGFR) | % Ctrl, KIT(L576P) ([4]; target KIT(L576P)) | % Ctrl, FLT4 ([5]; target FLT4) | % Ctrl, ABL1-nonphosphorylated ([6]; target ABL1-nonphosphorylated) | % Ctrl, ABL1-phosphorylated ([6]; target ABL1-phosphorylated) | % Ctrl, EGFR(L858R) ([7]; target EGFR(L858R)) | % Ctrl, RET(V804L) ([8]; target RET(V804L)) | % Ctrl, EGFR(L861Q) ([9]; target EGFR(L861Q)) | % Ctrl, ABL1(H396P)-nonphosphorylated [10, 18] | % Ctrl, ABL1(H396P)-phosphorylated [10, 19] | % Ctrl, KIT(V559D, V654A) ([11]; target KIT(V559D, V654A)) | % Ctrl, FLT3 ([12]; target FLT3) | % Ctrl, FLT3-autoinhibited ([12]; target FLT3-autoinhibited) | % Ctrl, PDGFRB ([13]; target PDGFRB) | % Ctrl, EGFR(L858R, T790M) ([14]; target EGFR(L858R, T790M)) | % Ctrl, ABL1(Y253F)-phosphorylated [15, 20] | SMILES | other results
80 % Ctrl | 31 % Ctrl | 2.9 % Ctrl | 70 % Ctrl | 34 % Ctrl | 49 % Ctrl | 4.1 % Ctrl | 3.6 % Ctrl | 85 % Ctrl | 0.3 % Ctrl | 99 % Ctrl | 0.7 % Ctrl | 4.3 % Ctrl | 43 % Ctrl | 4.2 % Ctrl | 2 % Ctrl | 16 % Ctrl | 8.1 % Ctrl | 11 % Ctrl | Cc1cc2c([nH]1)/C=C1\C(=O)Nc3ccc(cc31)-c1cnn(C)c1OCCCN(C)C2=O [Ex. 166, [3a(4)Z]-9,14-dimethyl-9,10,11,12-tetrahydro-14H-1,17-(ethanediylidene)pyrazolo[4,3-n]dipyrrolo[3,2-g:3′,4′-j][1,5]oxazacyclopentadecine-3,8(2H,5H)-dione] | 
5.7 % Ctrl | 6.7 % Ctrl | 0 % Ctrl | 95 % Ctrl | 0.9 % Ctrl | 0.2 % Ctrl | 0.1 % Ctrl | 0.1 % Ctrl | 45 % Ctrl | 1.2 % Ctrl | 63 % Ctrl | 0 % Ctrl | 0 % Ctrl | 27 % Ctrl | 2.5 % Ctrl | 63 % Ctrl | 0.9 % Ctrl | 80 % Ctrl | 0.1 % Ctrl | CN1CCOc2cc3c(cc2Cl)NC(=O)/C3=C\c2[nH]ccc2C(=O)N(C)CC1 [Ex. 164, [16a(17)Z]-19-chloro-2,5,8-trimethyl-5,6,7,8,9,10-hexahydro-12,14-(ethanediylidene)dipyrrolo[3,2-i:3′,4′-l][1,4,7]oxadiazacyclopentadecine-4,16(1H,15H)-dione] | 
 |  |  |  |  |  |  |  |  |  |  |  |  |  |  |  |  |  |  | Cc1cc2c([nH]1)/C=C1\C(=O)Nc3ccc(cc31)-c1c(C)n[nH]c1CNCCN(C)C2=O [Ex. 127, [3a(4)Z]-6,9,16-trimethyl-9,10,11,12,13,14-hexahydro-1,17-(ethanediylidene)pyrazolo[4,3-m]dipyrrolo[3,2-f:3′,4′-i][1,4]diazacyclopentadecine-3,8(2H,5H)-dione] | % Ctrl, ABL1(F317I)-nonphosphorylated ([1]; ABL1(F317I)-nonphosphorylated): 2.6 % Ctrl; % Ctrl, ABL1(F317I)-phosphorylated ([1]; ABL1(F317I)-phosphorylated): 5.5 % Ctrl; % Ctrl, RET(M918T) ([2]; RET(M918T)): 2.1 % Ctrl; % Ctrl, EGFR ([3]; EGFR): 42 % Ctrl; % Ctrl, KIT(L576P) ([4]; KIT(L576P)): 73 % Ctrl; % Ctrl, FLT4 ([5]; FLT4): 2.1 % Ctrl; % Ctrl, ABL1-nonphosphorylated ([6]; ABL1-nonphosphorylated): 0.05 % Ctrl; % Ctrl, ABL1-phosphorylated ([6]; ABL1-phosphorylated): 0 % Ctrl; % Ctrl, EGFR(L858R) ([7]; EGFR(L858R)): 47 % Ctrl; % Ctrl, RET(V804L) ([8]; RET(V804L)): 0.55 % Ctrl; % Ctrl, EGFR(L861Q) ([9]; EGFR(L861Q)): 73 % Ctrl; % Ctrl, ABL1(H396P)-nonphosphorylated ([10]; ABL1(H396P)-nonphosphorylated): 0 % Ctrl; % Ctrl, ABL1(H396P)-phosphorylated ([10]; ABL1(H396P)-phosphorylated): 0 % Ctrl; % Ctrl, KIT(V559D, V654A) ([11]; KIT(V559D, V654A)): 89 % Ctrl; % Ctrl, FLT3 ([12]; FLT3): 4.6 % Ctrl; % Ctrl, FLT3-autoinhibited ([12]; FLT3-autoinhibited): 9.9 % Ctrl; % Ctrl, PDGFRB ([13]; PDGFRB): 28 % Ctrl; % Ctrl, EGFR(L858R, T790M) ([14]; EGFR(L858R, T790M)): 2.3 % Ctrl; % Ctrl, ABL1(Y253F)-phosphorylated ([15]; ABL1(Y253F)-phosphorylated): 0 % Ctrl
